Assay results published in ChEMBL document CHEMBL3351382, “New thiophene-1,2,4-triazole-5(3)-ones: highly bioactive thiosemicarbazides, structures of Schiff bases and triazole-thiols” (Eur J Med Chem, 2014).
≈ marks a conversion by molar mass, not a printed value. Calls of active or inactive are those of the source. The rule behind the calls is not given here.

What was measured:
Saccharomyces cerevisiae = experiment: Antimicrobial activity against Saccharomyces cerevisiae RSKK 251 after 24 hrs by agar dilution method; assay type: functional, organism-based
Candida albicans = experiment: Antimicrobial activity against Candida albicans ATCC 60193 after 24 hrs by agar dilution method; assay type: functional, organism-based
Staphylococcus aureus = experiment: Antimicrobial activity against Staphylococcus aureus ATCC 25923 after 24 hrs by agar dilution method; assay type: functional
Escherichia coli = experiment: Antimicrobial activity against Escherichia coli ATCC 25922 after 24 hrs by agar dilution method; assay type: functional, organism-based
Bacillus cereus = experiment: Antimicrobial activity against Bacillus cereus 709 Roma after 24 hrs by agar dilution method; assay type: functional
Enterococcus faecalis = experiment: Antimicrobial activity against Enterococcus faecalis ATCC 29212 after 24 hrs by agar dilution method; assay type: functional, organism-based
[1] = Antioxidant activity assessed as DPPH scavenging activity at 10 ug/ml after 60 mins by spectrophotometry; assay type: physicochemical; conditions: 1 h
[2] = Antioxidant activity assessed as trolox equivalent of ferric ion reducing activity using fe3+-TPTZ at 200 ug/ml by FRAP assay; assay type: physicochemical
Listeria monocytogenes = experiment: Antimicrobial activity against Listeria monocytogenes ATCC 43251 after 24 hrs by agar dilution method; assay type: functional, organism-based
[3] = system: Yersinia pseudotuberculosis; conditions: ATCC 911
Pseudomonas aeruginosa = experiment: Antimicrobial activity against Pseudomonas aeruginosa ATCC 10145 after 24 hrs by agar dilution method; assay type: functional, organism-based
[4] = system: Mycolicibacterium smegmatis; experiment: Antimicrobial activity against Mycobacterium smegmatis ATCC 607 after 24 hrs by agar dilution method; assay type: functional
[5] = Antioxidant activity assessed as DPPH scavenging activity at 200 ug/ml after 60 mins by spectrophotometry; assay type: physicochemical; conditions: 1 h

| Structure (SMILES) | MIC (Saccharomyces cerevisiae) | MIC (Candida albicans) | MIC (Staphylococcus aureus; ATCC 25923, 24 h) [µg/mL] | MIC (Escherichia coli) | MIC (Bacillus cereus) | MIC (Enterococcus faecalis) | Activity [1] [%] | Activity [2] [µM] | MIC (Listeria monocytogenes) | MIC [3] | MIC (Pseudomonas aeruginosa) | MIC [4] | MIC (Staphylococcus aureus) | Activity [5] [%] | MIC ([4]; ATCC 607, 24 h) [µg/mL] |
| --- | --- | --- | --- | --- | --- | --- | --- | --- | --- | --- | --- | --- | --- | --- | --- |
| OC(Cn1cncn1)(Cn1cncn1)c1ccc(F)cc1F | Active | Active |  |  |  |  |  |  |  |  |  |  |  |  |  |
| Nn1c(Cc2cccs2)nn(CC(=O)NNC(=S)Nc2ccc(F)cc2)c1=O | inactive | inactive | 2410 (≈ 5.72 mM) | inactive | inactive | inactive | 69 | 503 | inactive | inactive | inactive | inactive |  |  |  |
| CCOC(=O)Cn1nc(Cc2cccs2)n(N)c1=O | inactive | inactive |  | inactive | inactive | inactive |  | 14 | inactive | inactive | inactive |  | inactive | 10 | 994 (≈ 3.52 mM) |
| Nn1c(Cc2cccs2)nn(Cc2nnc(S)n2-c2ccc(F)cc2)c1=O | inactive | inactive |  | inactive | inactive | inactive |  | 39 | inactive | inactive | inactive | inactive | inactive | 31.7 |  |
| Cc1ccc(NC(=S)NNC(=O)Cn2nc(Cc3cccs3)n(N)c2=O)cc1 | inactive | inactive | 3220 (≈ 7.72 mM) | inactive | inactive | inactive | 88.2 | 1257 | inactive | inactive | inactive |  |  |  | 1610 (≈ 3.86 mM) |
| COc1ccc(/C=N/NC(=O)Cn2nc(Cc3cccs3)n(/N=C/c3ccc(OC)cc3)c2=O)cc1 | inactive | inactive |  | inactive | inactive | inactive |  | 54 | inactive | inactive | inactive | inactive | inactive |  |  |
| Nn1c(Cc2cccs2)nn(CC(=O)N/N=C/c2cccs2)c1=O | inactive | inactive |  | inactive | inactive | inactive |  | 36 | inactive | inactive | inactive | inactive | inactive |  |  |
| Nn1c(Cc2cccs2)nn(Cc2nnc(S)n2-c2ccc(Br)cc2)c1=O | inactive | inactive | 1750 (≈ 3.77 mM) | inactive | 1750 µg/mL (≈ 3.77 mM) | inactive |  | 70 | inactive | inactive | inactive |  |  | 22.1 | 1750 (≈ 3.77 mM) |
| Nn1c(Cc2cccs2)nn(CC(=O)NNC(=S)Nc2ccc(Br)cc2)c1=O | inactive | inactive | 950 (≈ 1.97 mM) | inactive | 950 µg/mL (≈ 1.97 mM) | inactive | 84.4 | 635 | inactive | inactive | inactive |  |  |  | 950 (≈ 1.97 mM) |
| Nn1c(Cc2cccs2)nn(CC(=O)N/N=C/c2ccco2)c1=O | inactive | inactive |  | inactive | inactive | inactive |  | 10 | inactive | inactive | inactive | inactive | inactive | 9.7 |  |
| O=C(Cn1nc(Cc2cccs2)n(/N=C/c2cccs2)c1=O)N/N=C/c1cccs1 | inactive | inactive |  | inactive | inactive | inactive |  | 27 | inactive | inactive | inactive | inactive | inactive |  |  |
| Nn1c(Cc2cccs2)nn(Cc2nnc(S)n2-c2ccccc2)c1=O | inactive | inactive |  | inactive | inactive | inactive |  | 11 | inactive | inactive | inactive | inactive | inactive | 62.7 |  |
| O=C(Cn1nc(Cc2cccs2)n(/N=C/c2ccccc2)c1=O)N/N=C/c1ccccc1 | inactive | inactive |  | inactive | inactive | inactive |  | 35 | inactive | inactive | inactive | inactive | inactive |  |  |
| O=C(Cn1nc(Cc2cccs2)n(/N=C/c2cccnc2)c1=O)N/N=C/c1cccnc1 | inactive | inactive |  | inactive | inactive | inactive |  | 16 | inactive | inactive | inactive | inactive | inactive |  |  |
| Nn1c(Cc2cccs2)nn(CC(=O)N/N=C/c2ccccc2)c1=O | inactive | inactive |  | inactive | inactive | inactive |  | 40 | inactive | inactive | inactive | inactive | inactive |  |  |
| COc1ccc(/C=N/NC(=O)Cn2nc(Cc3cccs3)n(N)c2=O)cc1 | inactive | inactive |  | inactive | inactive | inactive |  | 87 | inactive | inactive | inactive | inactive | inactive |  |  |
| Cc1ccc(-n2c(S)nnc2Cn2nc(Cc3cccs3)n(N)c2=O)cc1 | inactive | inactive |  | inactive | inactive | inactive |  | 54 | inactive | inactive | inactive | inactive | inactive | 23.9 |  |
| Nn1c(Cc2cccs2)nn(CC(=O)N/N=C/c2cccnc2)c1=O | inactive | inactive |  | inactive | inactive | inactive |  | 26 | inactive | inactive | inactive | inactive | inactive |  |  |
| NNC(=O)Cn1nc(Cc2cccs2)n(N)c1=O | inactive | inactive |  | inactive | inactive | inactive |  | 1368 | inactive | inactive | inactive |  | inactive | 1.9 | 994 (≈ 3.7 mM) |
| CC1(C)S[C@@H]2[C@H](NC(=O)[C@H](N)c3ccccc3)C(=O)N2[C@H]1C(=O)O |  |  |  | Active | Active | Active |  |  | Active | Active | Active | Active | Active |  |  |
| O=C(Cn1nc(Cc2cccs2)n(/N=C/c2ccco2)c1=O)N/N=C/c1ccco1 | inactive | inactive |  | inactive | inactive | inactive |  | 79 | inactive | inactive | inactive | inactive | inactive | 30.9 |  |
| Nn1c(Cc2cccs2)nn(CC(=O)NNC(=S)Nc2ccccc2)c1=O | inactive | inactive | 2520 (≈ 6.26 mM) | inactive | 5050 µg/mL (≈ 12.5 mM) | inactive | 83.4 | 584 | inactive | inactive | inactive |  |  |  | 1260 (≈ 3.13 mM) |
